Earlier results on one compound are cited in patent US9131678B1, “Ultraviolet strategy for avian repellency” (The United States of America, as represented by the …, priority 2009, dated 2015).

Data set [1] deals with male red-winged blackbirds. Particulars: 2,500 ppm caffeine, male red-winged blackbirds in captivity.
The subject of another data set is Blackbirds. To be noted: rice seeds treated with 10,000 ppm caffeine, field conditions; >80% of untreated rice seeds consumed.

Take `Cn1c(=O)c2c(ncn2C)n(C)c1=O` [caffeine]: the “reduction of rice consumption” value in data set [1] is listed as 76%. Also, the rice seeds consumed in the data set with Blackbirds is less than 10%.
